Test results reported in patent US20230055705A1, “SUBSTITUTED THIOPHENE CARBOXAMIDES AND DERIVATIVES THEREOF” (Bayer Aktiengesellschaft, priority 2019, published 2023).

Experiments:
[1] = test system: Xanthomonas campestris pv. campestris; assay: In vivo preventive test on Xanthomonas campestris pv. campestris (black rot on cabbage); settings: 31 ppm of active ingredient, evaluated 8 or 10 days after inoculation, read-out: efficacy
Method in brief: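 Young cabbage plants sprayed with compound in acetone/DMSO/Tween diluted in water; solvent-only controls. Leaves sprayed with bacterial suspension 72 h later, then held 8 or 10 days at 27° C and 95% relative humidity. Efficacy scored 8 or 10 days post-inoculation, 0% matching controls, 100% meaning no disease.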

[2] = test system: young plants of cabbage; assay: Phytotoxicity observed in the in vivo preventive test on Peronospora parasitica; settings: for phytotoxicity: 500 ppm
Method: The tested active ingredients were prepared by homogenization in a mixture of acetone/Dimethyl sulfoxide/Tween®, and then diluted with water to obtain the desired active material concentration. The young plants of cabbage were treated by spraying the active ingredient prepared as described above. Control plants were treated only with an aqueous solution of acetone/Dimethyl sulfoxide/Tween®.
After 72 hours, the plants were contaminated by spraying the leaves with an aqueous suspension of Peronospora parasitica spores. The contaminated cabbage plants were incubated for 5 days at 20° C. and at 100% relative humidity.
Compounds CMP2 and CMP3 were tested in an in vivo preventive test on Peronospora parasitica (Crucifer downy mildew) in the same conditions as described in Example G.

[3] = test system: young plants of cabbage; assay: Phytotoxicity observed in the in vivo preventive test on Xanthomonas campestris pv. campestris; settings: for phytotoxicity: 125 ppm
Method: The young plants of cabbage were treated by spraying the active ingredient prepared as described above. Control plants were treated only with an aqueous solution of acetone/Dimethyl sulfoxide/Tween®.
After 72 hours, the plants were contaminated by spraying the leaves with an aqueous bacteria suspension of Xanthomonas campestris pv. campestris. The contaminated cabbage plants were incubated for 8 or 10 days at 27° C. at 95% relative humidity.
Compounds CMP1, CMP2, CMP3 and CMP4 were tested in an in vivo preventive test on Xanthomonas campestris pv. campestris (black rot on cabbage) in the same conditions as described in Example H.

[4] = test system: Uromyces appendiculatus; assay: In vivo preventive test on Uromyces appendiculatus (bean rust); settings: 240 h, 125 ppm of active ingredient, evaluated 10 days after inoculation, read-out: efficacy
Method in brief: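 Young bean plants sprayed with compound in acetone/DMSO/Tween diluted in water, inoculated 72 h later with U. appendiculatus spore suspension. Held 24 h at 20 °C, 100% RH, then 9 days at 20 °C, 70-80% RH. Efficacy scored 10 days post-inoculation versus solvent-treated controls (0% = control, 100% = no disease).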

[5] = LogP by HPLC on reversed phase columns (EEC directive 79/831 Annex V.A8); assay type: physicochemical; settings: reversed phase HPLC columns
Method in brief: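 LogP derived from retention time by linear interpolation against a C3–C16 alkan-2-one calibration series of known LogP. Measured by HPLC on reversed-phase columns following EEC 79/831 Annex V.A8. UV spectra over 200–400 nm at signal peaks gave lambda-max.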

[6] = test system: Peronospora parasitica; assay: In vivo preventive test on Peronospora parasitica (Crucifer downy mildew); settings: Hyaloperonospora parasitica, in Brassica oleracea, 120 h, cabbage, evaluated 5 days after inoculation, read-out: efficacy; for pest or weed control at 31 ppm: 31 ppm of active ingredient; for pest or weed control at 125 ppm: 125 ppm of active ingredient
Method in brief: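 Young cabbage plants were sprayed with compound in acetone/DMSO/Tween diluted with water, then inoculated 72 h later with a Peronospora parasitica spore suspension. Plants were kept 5 days at 20 °C and 100% RH. Efficacy was scored with 0% equal to solvent-treated controls and 100% meaning no disease.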

[7] = test system: Pseudomonas syringae pv. tomato; assay: Pseudomonas syringae pv. tomato in vitro cell test; assay type: cell-based; settings: 20 ppm of active ingredient, 24 h incubation, read-out: efficacy (inhibition of bacteria growth)
Method: Culture medium: LB broth medium (Luria Broth Miller) Sigma
Inoculum: bacteria suspension
Compounds were solubilized in DMSO and the solution used to prepare the required range of concentrations. The final concentration of DMSO used in the assay was 1%.
(§1) Inoculum was prepared from a pre-culture of bacteria grown in liquid medium and diluted to the desired optical density (OD).
(§2) Compounds were evaluated for their ability to inhibit bacteria growth in liquid culture assay. The compounds were added in the desired concentrations to culture medium containing the bacteria suspension. After 24 h of incubation, the efficacy of compounds was determined by spectrometric measurement of bacteria growth. Inhibition was determined by comparing the absorbance values in wells containing the compounds with the absorbance in control wells without active ingredients.

[8] = test system: salicylate responsive promoter sequence of the PR1 (pathogenesis-related protein I) gene (AT2G14610); assay: Induction of defense gene expression in Arabidopsis thaliana (PR1 promoter-GFP reporter plants); assay type: in vivo; settings: Arabidopsis thaliana, 72 h, 3rd day after spraying, mock treated leaves set as 1.00, read-out: relative fluorescence value; for fold induction at 75 ppm: 75 ppm of compound
Method in brief: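 Transgenic A. thaliana carrying GFP under the salicylate-responsive PR1 promoter, grown five days, then sprayed with compounds. Whole-plant fluorescence imaged and quantified on day 3 post-spray, expressed relative to mock-treated leaf background set at 1.00.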

[9] = test system: Pseudomonas syringae pv. tomato; assay: In vivo preventive test on Pseudomonas syringae pv. tomato (bacterial speck on tomato); settings: 31 ppm of active ingredient, evaluated 5 or 6 days after inoculation, read-out: efficacy
Method in brief: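 Young tomato plants sprayed with compound in acetone/DMSO/Tween diluted in water; solvent-only controls. Inoculated 72 h later by spraying leaves with bacterial suspension; 4 days saturated atmosphere then 1–2 days at 70–80% RH, 22 °C day/20 °C night. Efficacy scored 5–6 days post-inoculation, 0% = control, 100% = no disease.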

[10] = test system: Alternaria alternata; assay: Alternaria alternata in vitro cell test; assay type: cell-based; settings: 120 h, 20 ppm of active ingredient, 5 days incubation, read-out: efficacy (inhibition of fungal growth)
Method: (§3) • Solvent: DMSO • Culture medium: 14.6 g anhydrous D-glucose (VWR), 7.1 g Mycological Peptone (Oxoid), 1.4 g granulated Yeast Extract (Merck), QSP 1 liter • Inoculum: spores suspension
(§4) Fungicides were solubilized in DMSO and the solution used to prepare the required range of concentrations. The final concentration of DMSO used in the assay was ≤[…]1%.
A spore suspension of A. alternata was prepared and diluted to the desired spore density.
(§5) Fungicides were evaluated for their ability to inhibit spore germination and mycelium growth in liquid culture assay. The compounds were added in the desired concentration to the culture medium with spores. After 5 days incubation, fungi-toxicity of compounds was determined by spectrometric measurement of mycelium growth. Inhibition of fungal growth was determined by comparing the absorbance values in wells containing the fungicides with the absorbance in control wells without fungicides.

[11] = test system: Colletotrichum lindemuthianum; assay: Colletotrichum lindemuthianum in vitro cell test; assay type: cell-based; settings: 144 h, 20 ppm of active ingredient, 6 days incubation, read-out: efficacy (inhibition of fungal growth)
Method: as §3, §4
A spore suspension of C. lindemuthianum was prepared and diluted to the desired spore density.
as §5, with “inhibit spores” for “inhibit spore”, “After 6” for “After 5”

[12] = test system: Xanthomonas campestris pv. campestris; assay: Xanthomonas campestris pv. campestris in vitro cell test; assay type: cell-based; settings: 20 ppm of active ingredient, 24 h incubation, read-out: efficacy (inhibition of bacteria growth)
Method: • Solvent: DMSO • Culture medium: LB broth medium (Luria Broth Miller) Sigma • Inoculum: bacteria suspension
Compounds were solubilized in DMSO and the solution used to prepare the required range of concentrations. The final concentration of DMSO used in the assay was ≤1%.
as §1, §2

[13] = test system: Colletotrichum lindemuthianum; assay: In vivo preventive test on Colletotrichum lindemuthianum (Antrachnose on bean); settings: 144 h, 31 ppm of active ingredient, inoculation 72 h after spraying, evaluated 6 days after inoculation, read-out: efficacy
Method in brief: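 Young bean plants sprayed preventively with compound in acetone/DMSO/Tween diluted in water, then spore-inoculated 72 h later. Incubation 24 h at 20° C./100% RH, then 5 days at 20° C./90% RH; scored 6 days post-inoculation as % efficacy (0% = solvent-treated control, 100% = no disease).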

[14] = method [a]: LC-UV, in an acidic range, with 0.1% formic acid in water and acetonitrile as eluent (linear gradient from 10% to 95% acetonitrile)
[15] = method [a]: LC-UV, acidic range, 0.1% formic acid in water and acetonitrile as eluent (linear gradient 10% to 95% acetonitrile)

chromatographic logP [5, 14] | chromatographic logP ([5]; given in the preparation examples, method not marked) | chromatographic logP [5, 15] | SMILES | pest or weed control at 31 ppm [1] | phytotoxicity (in place of Efficacy (%) at 500 ppm) [2] | phytotoxicity [2] | phytotoxicity (in place of Efficacy (%) at 125 ppm) [3] | phytotoxicity [3] | pest or weed control at 125 ppm [4] | pest or weed control at 31 ppm [6] | pest or weed control at 125 ppm [6] | inhibition at 20 ppm [7] | fold induction at 75 ppm [8] | fold induction at 300 ppm [8] | pest or weed control at 31 ppm [9] | inhibition at 20 ppm [10] | inhibition at 20 ppm [11] | inhibition at 20 ppm [12] | pest or weed control at 31 ppm [13]
 |  |  | COC(=O)[C@H](C)NC(=O)c1sc(Cl)c(Cl)c1Cl [CMP2] | < 40% | * (No efficacy measured due to over 80% phytotoxicity observed) | over 80% | * (No efficacy measured due to over 80% phytotoxicity observed) | over 80% |  |  |  |  |  |  |  |  |  |  | 
 |  |  | CCOC(=O)[C@H](C)NC(=O)c1sc(Cl)c(Cl)c1Cl [CMP3] | 0% | * (No efficacy measured due to over 80% phytotoxicity observed) | over 80% | * (No efficacy measured due to over 80% phytotoxicity observed) | over 80% |  |  |  |  |  |  |  |  |  |  | 
3.31 |  |  | COC(=O)C(NC(=O)c1sc(Cl)c(Cl)c1Cl)C(=O)OC [I.007] |  |  |  |  |  | 90 to 100% | 90 to 100% | 90 to 100% | ≤ 30% | > 2 | > 2 | 80 to 89% | ≤ 30% | ≤ 30% | ≤ 30% | 
1.89 | 1.89 |  | NC(=O)CNC(=O)c1sc(Cl)c(Cl)c1Cl [I.066, N-(2-amino-2-oxoethyl)-3,4,5-trichlorothiophene-2-carboxamide] |  |  |  |  |  | 90 to 100% | 90 to 100% | 90 to 100% | ≤ 30% | > 2 | > 2 | 80 to 89% | ≤ 30% | ≤ 30% | ≤ 30% | 70 to 79%
 |  | 4.21 | CCOC(=O)CC[C@H](NC(=O)c1sc(Cl)c(Cl)c1Cl)C(=O)OCC [I.137] | 80 to 89% |  |  |  |  | 90 to 100% | 90 to 100% | 90 to 100% | ≤ 30% | > 2 | > 2 |  | ≤ 30% | ≤ 30% | ≤ 30% | 80 to 89%
 |  | 3.36 | COC(=O)CC[C@H](NC(=O)c1sc(Cl)c(Cl)c1Cl)C(=O)OC [I.139] |  |  |  |  |  | 90 to 100% | 90 to 100% | 90 to 100% | ≤ 30% | > 2 | > 2 | 80 to 89% | ≤ 30% | ≤ 30% | ≤ 30% | 70 to 79%
